Drawing on patent US10953032B2, “Cyclic dinucleotides as anticancer agents” (BRISTOL-MYERS SQUIBB COMPANY, priority 2017, dated 2021), this text covers EC50 for six compounds.

Experiment [1] deals with T1, STING WT: His-TVMV-S-hSTING(155-341)-H232R (Homo sapiens, UniProt Q86WV6, H232R).
T1 construct: STING WT: His-TVMV-S-hSTING(155-341)-H232R
The experiment can be described thus: STING HTRF Binding Assay (time resolved FRET competition), STING WT. Conditions: 20 nM His-tagged STING cytoplasmic domain WT, 200 nM fluorescein-labeled cGAMP analog probe, one hour; read-out: HTRF Binding Assays EC50 (μM) STING WT. Here is the method:
(§1) A time resolved FRET-based competition binding assay was used to assess test article binding to STING WT and STING AQ. His-tagged STING cytoplasmic domain (WT or AQ) at a concentration of 20 nM was incubated with 2.5 nM Tb-labeled anti-His antibody, test compound, and fluorescein-labeled cGAMP analog probe (BioLog cat. no. C195) at a concentration of 200 nM (STING WT) or 40 nM (STING AQ) in PBS containing 0.005% Tween-20 and 0.1% BSA for one hour. Fluorescence at 495 nm and 520 nm was measured using an EnVision microplate reader to quantify FRET between Tb-labeled anti-His antibody and fluorescein-labeled probe. Background was defined as the signal obtained in the absence of STING protein, and background subtracted FRET ratios were normalized to the maximum signal obtained in the absence of test compound. These values were converted to a percent inhibition. Percent inhibition was determined for test compounds at 11 concentrations. The IC50, defined as the concentration of competing test compound needed to reduce specific binding of the probe by 50%, was calculated using the 4 parameter logistic equation to fit the data

Experiment [2] concerns IRF3. The experiment can be described thus: STING THP1 Reporter Assay, IRF pathway (secreted Lucia luciferase). The class given is cell-based. The following applies: THP1-Dual cells, 10% human plasma, luciferase readout, 100% activation = 100 μM cGAMP, read-out: THP1 Reporter Assays EC50 (μM) IRF3. The text has this: (§2) THP1-Dual™ cells were derived from the human THP-1 monocyte cell line by stable integration of two inducible reporter constructs. To this end, THP1-Dual™ cells allow the simultaneous study of the NF-κB pathway, by monitoring the activity of SEAP, and the IRF pathway by assessing the activity of a secreted luciferase (Lucia). Both reporter proteins are readily measurable in the cell culture supernatant when using QUANTI-Blue™, a SEAP detection reagent, and QUANTI-Luc™, a luciferase detection reagent.
(§3) THP 1-Dual™ cells induce the activation of NF-κB in response to STING agonists. They also trigger the IRF pathway upon stimulation with STING agonists, such as cGAMP. Here, the THP-1-Dual cells were used to assess STING binders for function on the cellular level.
(§4) Serial dilutions of compounds in DMSO were added to low volume 384 well plates at 100 nl/well using an ECHO acoustic dispenser (Labcyte, model 550) to achieve final starting concentration of 100 μM in cell suspension. THP-1 Dual™ STING reporter cells (Invivogen, Dual cells cat #THPD-nfis) were added to the plates with compounds at 15,000 cells in 10 μL per well in RPMI media (Gibco, cat #11875) containing 10% human plasma in a low volume 384-well black wall clear bottom tissue culture plate (Corning, cat #3542) for SEAP assay and low volume solid white plate (Corning, cat #3826) for luciferase assay. One column of the plate was reserved for treatment with cGAMP at 100 μM for 100% activation calculation and one column for no treatment (DMSO only) for baseline activation. Plates were then incubated in 37° C. incubator at 5% CO2 for 20 hours.
(§5) In the SEAP assay, […] 2× QuantiBlue (Invivogen, cat #Rep-qb2) is added to 384 well black plates seeded with THP1 cells and incubated at 37° C. for 2 hours. Plates were read on the Envision (Perkin Elmer) at 620 nm wavelength (OD620). In the luciferase assay, 5 μl of Quantiluc (Invivogen, Rep-qlc2) is added to white 384 well plates seeded with THP1 cells and read at 5 minutes on the Envision (Perkin Elmer) using a luminescence protocol (RLU). For both cell lines, 100% activation was determined by value (RLU) of THP-1 Dual STING cells stimulated with 100 μM cGAMP (Invivogen, cat #TLRL-NACGA23-5).

In experiment [3] the test system is NFkB. The experiment can be described thus: STING THP1 Reporter Assay, NF-κB pathway (SEAP). The class given is cell-based. Conditions: THP1-Dual cells, 10% human plasma, SEAP readout (OD620), 100% activation = 100 μM cGAMP, read-out: THP1 Reporter Assays EC50 (μM) NFkB.
From the text: as §2, §3, §4, §5

The target in experiment [4] is T2, STING AQ: His-TVMV-S-hSTING(155-341)-G230A-R293Q (Homo sapiens, UniProt Q86WV6, G230A/H232R/R293Q).
T2 construct: STING AQ: His-TVMV-S-hSTING(155-341)-G230A-R293Q
The experiment can be described thus: STING HTRF Binding Assay (time resolved FRET competition), STING AQ. Conditions: 20 nM His-tagged STING cytoplasmic domain AQ, 40 nM fluorescein-labeled cGAMP analog probe, one hour; read-out: HTRF Binding Assays EC50 (μM) STING AQ. Here is the method: as §1

The structures appear in SMILES notation. Like-named read-outs stand apart in the source and are kept apart here.

T2 sequence (Q86WV6 with tags, fused parts or gaps G230A/H232R/R293Q): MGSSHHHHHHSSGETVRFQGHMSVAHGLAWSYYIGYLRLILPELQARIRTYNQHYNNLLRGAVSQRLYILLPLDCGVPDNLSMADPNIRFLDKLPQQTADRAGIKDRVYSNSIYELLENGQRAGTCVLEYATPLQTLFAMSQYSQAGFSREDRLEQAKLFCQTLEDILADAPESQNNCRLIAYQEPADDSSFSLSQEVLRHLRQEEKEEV
T1 sequence (Q86WV6 with tags, fused parts or gaps H232R): as the sequence (Q86WV6 with tags, fused parts or gaps G230A/H232R/R293Q) above, with A99G, Q162R counted along it

Turning to `Nc1ncnc2c1ncn2[C@@H]1O[C@@H]2COP(=O)(S)O[C@@H]3[C@H](O)[C@@H](COP(=O)(S)O[C@H]2[C@H]1F)O[C@H]3n1cnc2c(=O)[nH]c3nccn3c21` (single isomer, unassigned) [Example 1-1], the EC50 was 0.19 µM in experiment [1], greater than 100 µM in experiment [2] (20 hours), greater than 100 µM in experiment [3] (20 hours) and 0.07 µM in experiment [4].
Regarding `Nc1ncnc2c1ncn2[C@@H]1O[C@@H]2COP(=O)(S)O[C@@H]3[C@H](O)[C@@H](COP(=O)(S)O[C@H]2[C@H]1F)O[C@H]3n1cnc2c(=O)[nH]c3nccn3c21` (single isomer, unassigned) [Example 1-4], the EC50 was 0.003 µM in experiment [1], 1 µM in experiment [2] (20 hours), 3 µM in experiment [3] (20 hours) and less than 0.001 µM in experiment [4].
As for `Nc1ncnc2c1ncn2[C@@H]1O[C@@H]2COP(=O)(O)O[C@@H]3[C@H](O)[C@@H](COP(=O)(O)O[C@H]2[C@H]1N)O[C@H]3n1cnc2c(=O)[nH]c3nccn3c21` [Example 3, (1R,6R,8R,9R,10S,15R,17R,18R)-9-amino-8-(6-amino-9H-purin-9-yl)-3,12,18-trihydroxy-17-{4-oxo-1H,4H,5H-imidazo[2,1-b]purin-1-yl}-2,4,7,11,13,16-hexaoxa-3λ^5,12λ^5-diphosphatricyclo[13.2.1.0^6,10]octadecane-3,12-dione], the EC50 is 1.6 µM in experiment [1]; greater than 100 µM in experiment [2] (Homo sapiens, THP-1, 20 h); greater than 100 µM in experiment [3] (Homo sapiens, THP-1, 20 h); 0.3 µM in experiment [4].
Regarding `Nc1ncnc2c1ncn2[C@@H]1O[C@@H]2COP(=O)(S)O[C@@H]3[C@H](O)[C@@H](COP(=O)(S)O[C@H]2[C@H]1F)O[C@H]3n1cnc2c(=O)[nH]c3nccn3c21` (single isomer, unassigned) [Example 1-2], the EC50 in experiment [1] is 0.02 µM; in experiment [2] (20 hours) it was 10 µM; in experiment [3] (20 hours), 21 µM; in experiment [4], 0.004 µM.
The matching figures for `Nc1ncnc2c1ncn2[C@@H]1O[C@@H]2COP(=O)(S)O[C@@H]3[C@H](O)[C@@H](COP(=O)(S)O[C@H]2[C@H]1F)O[C@H]3n1cnc2c(=O)[nH]c3nccn3c21` (single isomer, unassigned) [Example 1-3]: 0.03 µM, 12 µM, 27 µM and 0.006 µM.
In the case of `Nc1ncnc2c1ncn2[C@@H]1O[C@@H]2COP(=O)(O)O[C@@H]3[C@H](O)[C@@H](COP(=O)(O)O[C@H]2[C@H]1F)O[C@H]3n1cnc2c(=O)[nH]c3nccn3c21` [Example 2, (1R,6R,8R,9R,10R,15R,17R,18R)-8-(6-amino-9H-purin-9-yl)-9-fluoro-3,12,18-trihydroxy-17-{4-oxo-1H,4H,5H-imidazo[2,1-b]purin-1-yl}-2,4,7,11,13,16-hexaoxa-3λ^5,12λ^5-diphosphatricyclo[13.2.1.0^6,10]octadecane-3,12-dione], the half-maximal effective concentration (EC50) was found to be 0.03 µM in experiment [1]; 23 µM in experiment [2] (Homo sapiens, THP-1, 20 h); 59 µM in experiment [3] (Homo sapiens, THP-1, 20 h); 0.002 µM in experiment [4].
